Laboratory results reported in patent US20250354993A1, “METHODS OF TREATING AND DIAGNOSING LUNG CANCER” (Yeda Research and Development Co. Ltd., priority 2019, published 2025).

Assays:
PSME4 = experiment: Western blot of A549 cells treated with mizoribine; format: cell-based; settings: purine synthesis blocked using mizoribine, FIG. 26B
Protocol: FIG. 26A-B. PSME4 expression correlates with increased Pyrimidine and decreased Purine metabolites. (A) The log 2 fold change in abundance of cellar metabolites in PSME4 high or low expressing cell lines (x axis) is plotted against the significance of the change. […] (B) A549 cells were treated with mizoribine for the time indicated and then separated by SDS-PAGE and analyzed by Western blot probed with the following antibodies: PSME4, LMP7 (PSMB8), PSMB10, pana (recognized all PSMA subunits), and β actin. Cell Culture and Treatments: A549 cells were grown in DMEM supplemented with 10% fetal bovine serum, 1% Penicillin/streptomycin and L-glutamine (2 mM) (Biological industries) at 37° C. with 5% CO2. Cells were treated with 400 U*mL−1 TNFαand/or 200 U*mL-1 IFNγ (peprotech) for the indicated amount of time. Antibodies for Western blotting, immunoprecipitation and immunohistochemistry: Primary antibodies to the following were used: PSMA1 (hybridoma). PANα (PSMA1-7; Enzo, BML-PW8195-0025), PSME4 (Millipore Sigma HPA060922 and Proteintech 18799-1-AP), LMP7 (Cell signaling 13635), PSMB10 (Thermo Fisher PAS19146) and β-Actin (Abcam ab170325) The following secondary antibodies were used: goat anti-mouse HRP (115-035-003) and goat anti-rabbit HRP (111-035-003) (Jackson Labs).

proteasome = experiment: Proteasome Cleavage Reporter Assay in A549 active cell extract; format: biochemical
Protocol: FIGS. 33A-D Active cell extract was prepared from A549 lung cancer cells, cells treated with TNFα and IFNγ (TI) and cells treated with TI and recombinant PA200. As a control, MG132 proteasome inhibitor was added. The extracts were then incubated with LLVY-AMC (SEQ ID NO: 1) (A) or PAL-AMC (SEQ ID NO: 2) (B) for 3.5 hours and the relative fluorescence units (RFU) was measured every minute. The RFU for each condition using LLVY-AMC (SEQ ID NO: 1) (C) or PAL-AMC (SEQ ID NO: 2) (D) is shown at 1.5 and 3.5 hours across the different repeats of the experiment.
FIGS. 34A-D. Active cell extract was prepared from A549 lung cancer cells and cells treated with TNFα and IFNγ (TI). To each of these PA200 was added at a concentration of 4.7 nm (1:1) or 0.47 nm (1:10). As a control, MG132 proteasome inhibitor was added. The extracts were then incubated with LLE-AMC (SEQ ID NO: 3) (A), NPND-AMC (SEQ ID NO: 4) (B), LLVY-AMC (SEQ ID NO: 1) (C) or LLE-BNA (SEQ ID NO: 5) (D) for 3.5 hours and the relative fluorescence units (RFU) was measured every minute.
Proteasome Cleavage Reporter Assay: A549 cells, stimulated with TNFα and IFNγ for the indicated times, were collected and flash frozen. Frozen cells were re-suspended in lysis buffer (25 mM sucrose, 50 mM TRIS pH 7.4, 5 mM MgCl2, 0.5 mM EDTA, 2 mM ATP, 1 mM DTT). Lysates were passed 10 times through a 27 G needle, incubated on ice for 15 min and the centrifuged at 21130rcf for 10 min. Protein concentrations were measured using the Coomassie Plus (Bradford) Assay Kit (Pierce, ThermoFisher Scientific). […] of cellular lysate was incubated with 0.1 mM suc-LLVY-AMC (SEQ ID NO: 1), ac-PAL-AMC (SEQ ID NO: 2), Z-LLE-AMC (SEQ ID NO: 3) (Biotest), ac-NPND-AMC (SEQ ID NO: 4) and Z-LLE-βNA (SEQ ID NO: 5) (bachem) as per protocol and fluorescence levels were measured over time using a BioTek Synergy H1 plate reader (Ex: 360 nm, Em: 460 nm). The background protease activity was determined for each condition from an identically prepared sample with the addition of Mg132 proteasome inhibitor (0.04 mM; Calbiochem). […]

[1] = A549 extract, PA200 added at 4.7 nm (1:1) or 0.47 nm (1:10), FIG. 34A-D

| Molecule | PSME4 expression (PSME4) | effect on the TNFα and IFNγ induced increase in proteasome cleavage (proteasome; A549 cells treated with TNFα and IFNγ plus recombinant PA200, LLVY-AMC or PAL-AMC, FIG. 33A-D) | chymotryptic cleavage (suc-LLVY-AMC) (proteasome; [1]) | constitutive proteasome caspase like activity (NPND-AMC + LLE-βNA) (proteasome; [1]) |
| --- | --- | --- | --- | --- |
| NC(=O)c1ncn([C@@H]2O[C@H](CO)[C@@H](O)[C@H]2O)c1O [mizoribine] | decrease in PSME4 expression | – | – | – |
| recombinant PSME4: recombinant Proteasome activator complex subunit 4 (PA200) added to A549 cell extract | – | partially reduced | reduction of activity | induces the activity |
